Results published in patent US20230374073A1, “DIMERIC MILLA IMMUNOMODULATORS” (Bristol-Myers Squibb Company, priority 2020, published 2023).
Starred links: 1 amine or outer side, 2 acyl side, 3 side chain; linkers in the order of their positions; H or OH if unused. Positions of bridges follow the written chain, without caps; N, C: chain ends. Non-standard residues stand in square brackets, D forms with d. Residues, ends and D or L forms follow the SMILES beside them. Chains are numbered I, II in the order given. Trp(1-CH2COOH) = N[C@@H](Cc1cn(CC(=O)O)c2ccccc12)C(=O)O; X1 = O=C(NC1CCC(CC2CCC(NC(=O)[*:2])CC2)CC1)[*:1]; Hyp = O=C(O)[C@@H]1C[C@@H](O)CN1; NMeNle = CCCC[C@H](NC)C(=O)O; NMeA = CN[C@@H](C)C(=O)O; Dab = NCC[C@H](N)C(=O)O; Dap = NC[C@H](N)C(=O)O

Target: T1, PD-1/PD-L1 (Homo sapiens, UniProt Q9NZQ7)
T1 construct: TVMV protease site (C); made in house; host or cells: HEK293T cells
T1 sequence (Q9NZQ7 18-239): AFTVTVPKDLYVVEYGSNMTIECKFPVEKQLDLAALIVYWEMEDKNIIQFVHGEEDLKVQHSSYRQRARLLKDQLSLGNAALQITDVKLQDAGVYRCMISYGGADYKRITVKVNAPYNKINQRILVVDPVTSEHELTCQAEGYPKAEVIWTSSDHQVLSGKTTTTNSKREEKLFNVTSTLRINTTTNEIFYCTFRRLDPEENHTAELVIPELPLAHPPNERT
Assay: PD-1/PD-L1 Homogenous Time-Resolved Fluorescence (HTRF) binding assay
Excerpt: The ability of the compounds of formula (I) to bind to PD-L1 was investigated using a PD-1/PD-L1 Homogenous Time-Resolved Fluorescence (HTRF) binding assay.
Homogenous Time-Resolved Fluorescence (HTRF) Binding Assay
The interaction of PD-1 and PD-L1 can be assessed using soluble, purified preparations of the extracellular domains of the two proteins. The PD-1 and PD-L1 protein extracellular domains were expressed as fusion proteins with detection tags, for PD-1, the tag was the Fc portion of Immunoglobulin (PD-1-Ig) and for PD-L1 it was the 6 histidine motif (PD-L1-His). All binding studies were performed in an HTRF assay buffer consisting of dPBS supplemented with 0.1% […] bovine serum albumin and 0.05% (v/v) Tween-20. For the h/PD-L1-His binding assay, inhibitors were pre-incubated with PD-L1-His (10 nM final) for 15 m in 4 μl of assay buffer, followed by addition of PD-1-Ig (20 nM final) in 1 μl of assay buffer and further incubation for 15 m. HTRF detection was achieved using europium crypate-labeled anti-Ig (1 nM final) and allophycocyanin (APC) labeled anti-His (20 nM final). Antibodies were diluted in HTRF detection buffer and 5 μl was dispensed on top of the binding reaction. […]
Table 1 lists the IC50 values for representative examples of this disclosure measured in the PD-1/PD-L1 Homogenous Time-Resolved Fluorescence (HTRF) binding assay.

CCCC[C@H]1C(=O)N(C)[C@@H](CCCC)C(=O)N[C@@H](CC(C)C)C(=O)N[C@H](C(=O)NCC(N)=O)CSCC(=O)N[C@@H](Cc2ccc(O)cc2)C(=O)N(C)[C@@H](C)C(=O)N[C@@H](CC(N)=O)C(=O)N2CCC[C@H]2C(=O)N[C@@H](CNC(=O)NC2CCC(CC3CCC(NC(=O)NC[C@@H]4NC(=O)[C@@H]5CCCN5C(=O)[C@H](CC(N)=O)NC(=O)[C@H](C)N(C)C(=O)[C@H](Cc5ccc(O)cc5)NC(=O)CSC[C@@H](C(=O)NCC(N)=O)NC(=O)[C@H](CC(C)C)NC(=O)[C@H](CCCC)N(C)C(=O)[C@H](CCCC)N(C)C(=O)[C@H](Cc5cn(CC(=O)O)c6ccccc56)NC(=O)[C@H](CCN)NC(=O)[C@H](Cc5c[nH]c6ccccc56)NC(=O)[C@@H]5C[C@@H](O)CN5C(=O)[C@H](CC(C)C)NC4=O)CC3)CC2)C(=O)N[C@@H](CC(C)C)C(=O)N2C[C@H](O)C[C@H]2C(=O)N[C@@H](Cc2c[nH]c3ccccc23)C(=O)N[C@@H](CCN)C(=O)N[C@@H](Cc2cn(CC(=O)O)c3ccccc23)C(=O)N1C (stereo partly shown) [Compound 1002] (I: {CH2CO}-Y[NMeA]NP[Dap]L[Hyp]W[Dab][Trp(1-CH2COOH)][NMeNle][NMeNle]LCG-NH2 / II: {CH2CO}-Y[NMeA]NP[Dap]L[Hyp]W[Dab][Trp(1-CH2COOH)][NMeNle][NMeNle]LCG-NH2; linker I:5-II:5 via X1; thioether I:N-I:14, II:N-II:14)
IC50: 10 nM
